From US20230017266A1, “Cyclooxygenase-2 Inhibition for the Treatment of SAA-high Asthma” (THE USA, AS REPRESENTED BY THE SECRETARY, DEPT. OF HEALTH …, priority 2019, published 2023)

Tested on: NF-κB p65
Experiment: Phosphorylation of NF-κB p65 serine 529 in monocytes stimulated with HDL+SAA1 (flow cytometry)
Assay type: cell-based, human
Conditions: A438079 10 μM for 2 h, then HDL+SAA1 15 min; CD45+/CD14+/CD16− monocytes
Experimental: Phosphorylation of NF-κB p65. PBMCs isolated using Lymphoprep™ were resuspended in X-VIVO™ 15 serum-free hematopoietic cell medium (Lonza, Walkersville, Md.) and treated with the P2X7R antagonist, A438079 (10 ∝M), for 2 h prior to stimulation with HDL+SAA1 for 15 min^53. Subsequent cell processing was performed at 4° C. or on ice. Cells were washed with cold PBS, centrifuged at 300×g for 5 min, and reacted in a volume of 100 ∝l PBS for 15 min with the following antibodies; APC-Cy™7 mouse anti-human CD45 clone 2D1 (catalog #557833), FITC mouse anti-human CD14 clone M5E2 (catalog #555397), APC mouse anti-human CD16 clone B73.1 (catalog #561304), all form BD Biosciences (San Jose, Calif.) and cell viability dye (L34959, ThermoFisher Scientific, Frederick, Md.). […] Cells were washed with Phosflow Perm Buffer III and PBS, resuspended in PBS, and analyzed using a Fortessa analyzer equipped with 355, 407, 488, 532 and 640 nm LASER lines using FACS DIVA 8.0 software (BD Biosciences, San Jose, Calif.). […] Mean fluorescence intensity (MFI) was calculated and overlay histogram plots were generated to quantify phosphorylation of NF-κB p65 serine 529 among various treatment conditions.

Clc1cccc(-c2nnnn2Cc2cccnc2)c1Cl [A438079]
HDL+SAA1-mediated phosphorylation of p65 NF-κB: attenuated
